Results: patent publication US20090280110A1, “Cell Model for Alzheimer's Disease Pathology” (UNIVERSITY OF VIRGINIA PATENT FOUNDATION, priority 2006, published 2009)
Entries after “also recorded” stand apart in the source; their conditions may differ.

Legend:
CV-1 cell microtubules = experiment: Time lapse fluorescence microscopy of microtubules in transfected CV-1 cells treated with Aβ; format: cell-based, African green monkey
Protocol: (§1) Cell Culture: CV-1 (African green monkey kidney) cells were cultured in DMEM (Dulbecco's modified Eagle's Medium; GIBCO) supplemented with 10% Cosmic Calf Serum (Hyclone) and 50 μg/ml gentamycin. Cells were transiently transfected using Fugene (Roche) with cDNAs for the longest human isoform of tau, or the projection domain (amino acids 1-248) of tau linked at their C-terminals to eCFP or eYFP (Clontech); with YFP-α-tubulin (Clontech); or with GFP-MAP2c or GFP-MAP2c/tau chimeras (Roger et al., 2004), which were generous gifts of Dr. Shelley Halpain. Primary cortical neurons were purchased from Genlantis and cultured according to their guidelines. Primary hippocampal neurons (Wisco et al., 2003) were grown for at least 8 days prior to Aβ treatment. The tau siRNA (Darmacon SMARTpool) and control scrambled siRNA (Darmacon non-specific duplex II) were transfected into primary hippocampal neurons using the rat neuron Nucleofection system (Amaxa) and program G-13 (Qiang et al., 2006). Cells were cultured for 4 days after Nucleofection, and then were exposed to Aβ.
Aβ treatment: Previously described methods were used to synthesize (Burdick et al., 1992) and resuspend (Kayed et al., 2003) Aβ42 and Aβ40. The Aβ was added to cells cultured in serum-free DMEM to final concentrations from 0.1-5 μM. Pre-fibrillar Aβ was used in the first and second days following resuspension, while fibrillar Aβ was used following at least 7 days of stirring.
Microscopy: Confocal live cell imaging and immunofluorescence microscopy were performed on a Zeiss Axiovert 100 using Openlab 4.0 (Improvision) software, as previously described (Mateer et al., 2002). For electron microscopy, primary cortical and hippocampal neurons were grown on glass coverslips, treated with Aβ42, and fixed in 2.5% glutaraldehyde+0.5% tannic acid in 0.1 M cacodylate buffer pH 7.4. Cells on coverslips were dehydrated and capsule embedded in EPON, and the glass coverslip was removed from the EPON by alternating liquid nitrogen and warm water submersion of the capsule. Sectioned samples were viewed on a JEOL JEM 1010 electron microscope at 80 kV and images captured using a SA1-12c 16 megapixel cooled CCD (Scientific Instruments and Applications, Inc).

[1] = system: microtubules in primary hippocampal neurons; experiment: Triton X-100 extraction partitioning soluble and polymerized tubulin, immunoblotting; format: cell-based, rat; conditions: 2 hours
Protocol: Microtubule Extraction/Blotting: Primary hippocampal neurons were treated with 1-3 μM pre-fibrillar or fibrillar Aβ42. Cells were washed with PBS, and extracted with Triton X-100 in a microtubule stabilizing buffer (Black et al., 1996). Briefly, cells were incubated with PHEM buffer (60 mM PIPES pH 6.9, 25 mM HEPES, 10 mM EGTA, 2 mM MgCl2) with 10 μM taxol, and 0.2% Triton X-100 for 5 minutes. The buffer was collected and centrifuged for 5 minutes at maximum speed in an Eppendorf model 5415 table top centrifuge, and the supernatant removed and added to sample buffer. An equivalent volume of PHEM buffer and sample buffer was added to the dish, and this sample was added to the pellet from the spin. Equal volumes of supernatants and pellets, which respectively contained soluble and polymerized tubulin (Black et al., 1996), were then analyzed by immunoblotting with DM1α monoclonal anti-α-tubulin (Sigma) and monoclonal tau-5. DM1α (Blose et al., 1984) and tau-5 (Loomis et al., 1990) recognize all isoforms or α-tubulin and tau, respectively, independently of post-translational modifications. Quantitation of scanned immunoreactive α-tubulin bands was performed using the public domain image processing software, Image J at the NIH website.

[2] = system: primary rat cortical neurons; experiment: Immunofluorescence and electron microscopy of neurons treated with Aβ42; format: cell-based; conditions: 1 μM
Protocol: as §1
Microscopy: Confocal live cell imaging and immunofluorescence microscopy were performed on a Zeiss Axiovert 100 using Openlab 4.0 (Improvision) software, as previously described (Mateer et al., 2002). […]

tau = experiment: Western blotting with phosphorylation-sensitive anti-tau antibodies (PHF-1, AT180, tau-1); format: cell-based; conditions: primary rat hippocampal neurons, 1 μM, 2 hours
Text: Antibodies: Tau-5, Tau-1, and R1 tau were generous gifts of Dr. Lester Binder, and PHF-1 was kindly provided by Dr. Peter Davies. AT180 (Pierce Endogen), DM1α (Sigma Chemical), Actin C4 (Chemicon), fluorescently tagged goat anti-mouse IgG and goat anti-rabbit (Southern Biotech), and HRP-labeled goat anti-mouse IgG (KPL) were acquired from the indicated commercial sources.

Substance | microtubule integrity in tau-expressing cells (CV-1 cell microtubules; CV-1 cells expressing tau-CFP, as much as 5 μM, more than two hours) | microtubules in tau-expressing cells (CV-1 cell microtubules; tau-expressing CV-1 cells, 3 μM, 0-140 minutes (FIG. 1c)) | tubulin polymerized ([1]; primary hippocampal neurons, 3 μM, about 90% in cells not exposed) [%] | time after addition until tau dissociated from microtubules (CV-1 cell microtubules; CV-1 cells co-expressing tau-CFP and YFP-tubulin, 0.1-3 μM) [h] | concentration added to culture media at which tau dissociated from microtubules, which completely disassembled soon thereafter (CV-1 cell microtubules; CV-1 cells co-expressing tau-CFP and YFP-tubulin, within 1-2 hours) [µM] | microtubule integrity in cells without tau (CV-1 cell microtubules; CV-1 cells expressing YFP-tubulin but not tau-CFP, as much as 3 μM, more than two hours) | effect on tau and microtubules in tau-expressing cells (CV-1 cell microtubules; CV-1 cells with tau-CFP and YFP-tubulin, 1 μM, 0-120 minutes (FIG. 1a)) | microtubules in cells expressing the N-terminal arm (projection domain) of tau coupled to CFP (CV-1 cell microtubules; CV-1 cells, 1 μM) | microtubules in cells expressing GFP-tau chimera (CV-1 cell microtubules; CV-1 cells, 1 μM, less than an hour) | microtubules in cells expressing GFP-MAP2c chimera (CV-1 cell microtubules; CV-1 cells, 1 μM, more than 2 hours) | microtubule integrity in cells expressing GFP-MAP2c (CV-1 cell microtubules; CV-1 cells, 1 μM, over 2 hours) | change in tubulin levels in response to Aβ42 in tau siRNA-treated cells ([1]; primary neurons with tau siRNA, 2 μM, compared to tau expressing cells) | neurite morphology by immunofluorescence ([2]; 30 minutes) | neurite microtubules by electron microscopy ([2]; 2 hours) | AD-like tau phosphorylation (tau)
fibrillar Aβ42: synthesized Aβ42 peptide used following at least 7 days of stirring | unaffected | unaffected | 65 |  |  |  |  |  |  |  |  |  |  |  | 
pre-fibrillar Aβ42: synthesized Aβ42 peptide used in the first and second days following resuspension; monomers to oligomers |  |  |  | 1 to 2 | 0.1 to 3 | remained intact | caused tau to dissociate from microtubules, and the microtubules to disassemble soon thereafter | depolymerized | depolymerized | remained intact | did not cause any apparent loss of microtubule integrity; also recorded: remained intact | no change | swollen varicosities | fewer, less organized microtubules; also recorded: numerous varicosities that were filled with membrane-bound organelles and lacked microtubules | did not cause increased AD-like tau phosphorylation
